Data: patent US7659306B2, “Method of increasing gastric emptying” (The Board of Regents of the University of Texas System, priority 2004, dated 2010)
“Also recorded” adds a separate entry of the source. Read-outs that look alike come from different tables or passages of the source.

Legend:
[1] = biological target: T1, dopamine 3 receptor (D3R) (Rattus norvegicus, UniProt P19020); experiment: Gastric emptying test (phenol red method) after i.p. D3R agonist; assay type: in vivo; design: from tissue; host or cells: whole animal, adult male Sprague-Dawley rat (gastrointestinal tract); conditions: adult male Sprague-Dawley rats, 1 mg/kg i.p., 20 minutes after phenol red methylcellulose meal, mean±SEM, vehicle 78±4.86%, hydrochloride
T1 sequence (P19020 whole entry): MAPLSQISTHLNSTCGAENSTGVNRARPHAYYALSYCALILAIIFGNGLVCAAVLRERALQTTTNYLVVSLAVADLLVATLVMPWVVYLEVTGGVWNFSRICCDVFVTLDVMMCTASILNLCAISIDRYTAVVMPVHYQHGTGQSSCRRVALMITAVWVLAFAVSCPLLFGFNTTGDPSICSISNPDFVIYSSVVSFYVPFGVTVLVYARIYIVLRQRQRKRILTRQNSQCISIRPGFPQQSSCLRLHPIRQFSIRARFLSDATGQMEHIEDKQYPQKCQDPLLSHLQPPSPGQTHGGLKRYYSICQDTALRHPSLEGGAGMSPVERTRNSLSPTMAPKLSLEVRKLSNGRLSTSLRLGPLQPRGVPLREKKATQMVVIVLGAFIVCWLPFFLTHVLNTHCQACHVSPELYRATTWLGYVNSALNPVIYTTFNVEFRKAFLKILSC
Protocol: Values were expressed as mean±SEM.
Adult male Sprague-Dawley rats (weighing 200-250 g) were deprived of food 18 hr prior to experiments but allowed free access to water. The animals were intraperitoneally injected with a dopamine 3 receptor agonist, PD 128907 hydrochloride, at 1 mg/kg or with physiological saline (control) before administration by oral tube of 1.5 ml of pre-warmed (35° C.) 0.05% phenol red solution.

[2] = biological target: T1, dopamine 3 receptor (D3R); experiment: Electric field stimulation induced relaxation of pyloric strips in an organ bath; design: from tissue; host or cells: whole animal, adult male Sprague-Dawley rat (gastrointestinal tract); conditions: pyloric strips of adult male Sprague-Dawley rats, agonist 0.1-10 µM, dose dependent, hydrochloride
Protocol: The pyloric function was assessed by measuring the relaxation of pyloric strips in an organ bath in response to electric field stimulation in the presence of D3R agonist ranging from 0.1-10 µM (1 µM vs control, P<0.05; 10 μM vs control, P=0.001).
Pyloric function was assessed in an organ bath by measuring the relaxation of pyloric strips of adult male Sprague-Dawley rats in the presence of the dopamine 3 receptor agonist, PD 128907 hydrochloride.

[3] = biological target: T1, dopamine 3 receptor (D3R); conditions: adult male Sprague-Dawley rats, dopamine 1 mg/kg i.p. plus nafadotride 0.1 or 1 mg/kg i.p., 20 minutes after meal
Protocol: Gastric emptying was assessed in adult male Sprague-Dawley rats by the phenol red method. […] Control rats received vehicle (PBS).
A solution of 50 mg phenol red in 100 ml aqueous methylcellulose (1.5%) was used as a test meal. Methylcellulose (1.5 g, 400 centipoises) was dispersed in 100 ml of hot water (80° C.) under continuous shaking. The solution was allowed to cool to 35° C., and then phenol red was added. Intensity and duration (5 hr) of agitation were kept constant to obtain solutions of reproducible viscosity.
Conscious rats were fed the 0.05% phenol red methylcellulose solution and euthanized after 20 minutes. The stomach was clamped at the pylorus and cardiac ends before removal. The stomach and its contents were homogenized with 100 ml of 0.1N NaOH. A baseline control for each phenol red solution preparation was used by mixing 1.5 ml with 100 ml of 0.1N NaOH. The mixture was then kept for 1 hr at room temperature: 5 ml of the supernatant was added to 0.5 ml of trichloroacetic acid solution (20% w/v) to precipitate the proteins. […] The solutions were then read with a spectrophotometer at a wavelength of 560 nm.
Gastric emptying (G.E.) for each rat was calculated according to the following formula: (1−Absorbance of test sample)/(Absorbance of baseline control)×100%. Values were expressed as mean±SEM. […]

Row | SMILES | gastric emptying [1] | gastric emptying ([1]; listed as D3R agonist) | electric field stimulation induced relaxation of pyloric strips [2] | reversal of the effect of dopamine on gastric emptying [3] | reversal of the effect of dopamine on gastric emptying ([3]; listed as Nafadotride)
1 | CCCN1CCO[C@@H]2c3cc(O)ccc3OC[C@H]21.Cl [PD 128907 hydrochloride] | 44% | 44±8.26% | reduced electric field stimulation induced relaxation of pyloric strips; also recorded: significant reduction in electric field stimulation induced relaxation of pyloric strips | – | –
2 | CCCCN1CCCC1CNC(=O)c1cc(C#N)c2ccccc2c1OC (centres unmarked) [nafadotride] | – | – | – | partial reversal of the effect of dopamine on gastric emptying | partially reverse the effect of dopamine
